From patent US6613317B1, “Volatile attractants for diabrotica species” (priority 1988, dated 2003)
Marks after values point to notes of the source that are not given here.

How the values were obtained:
Conditions in all cases: 100 mg per trap, n = 4
[1] = system: northern corn rootworm (NCR) adults; assay: Sticky trap attraction in corn, estragole analogues (Example 3); format: in vivo, Diabrotica barberi
Procedure, shortened: (§1)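 Cotton wicks dosed with 100 mg or 100 μL attractant per trap on TangleTrap-coated cartons, four replicates 10 m apart on 1 m posts at field edges of hybrid or sweet corn. Mean beetles caught after ~24 h; log-transformed ANOVA with Duncan's test, P=0.05.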

[2] = system: D. v. virgifera; assay: Sticky trap attraction in prairie habitat, Trelease Woods (Example 2); format: in vivo, Diabrotica virgifera virgifera
Procedure, shortened: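 Lure-dosed cotton wicks (solids in acetone; untreated controls) on TangleTrap-coated cartons atop 1 m posts, four replicates 10 m apart in relict prairie, mid-August over two years. Read-out: mean beetles caught after 24-h; log-transformed ANOVA with Duncan's multiple range test.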

[3] = system: western corn rootworm (WCR) adults; assay: Sticky trap attraction in corn, estragole analogues (Example 3); format: in vivo, Diabrotica virgifera virgifera
Procedure, shortened: as §1

[4] = system: D. u. howardi; assay: Sticky trap attraction along hybrid corn, Pomology South Farms (Example 2); format: in vivo, Diabrotica undecimpunctata howardi
Procedure, shortened: (§2)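 Lures (>98% purity) dosed at 100 mg per trap on cotton wicks atop TangleTrap-coated 1.0 liter cartons, solids dissolved in acetone; untreated wicks as controls. Four replicates placed 10 m apart on 1 m posts along a 0.8 ha hybrid corn field; mean beetles caught after 24-h, log-transformed ANOVA with Duncan's test.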

[5] = system: D. v. virgifera; assay: as above; format: in vivo, Diabrotica virgifera virgifera
Procedure, shortened: as §2

| SMILES | Mean number of NCR (±standard deviation) per sticky trap after 24 hours ([1]; August 7 (Table 11)) | Mean number of NCR (±standard deviation) per sticky trap after 24 hours ([1]; August 18 (Table 11)) | Mean number of D. v. virgifera per day (±standard deviation) ([2]; August 11, 1987) | Mean number of D. v. virgifera per day (±standard deviation) ([2]; August 14, 1987) | Mean number of D. v. virgifera per sticky trap per day (±standard deviation) ([2]; August 18, first year) | Mean number of D. v. virgifera per sticky trap per day (±standard deviation) ([2]; August 20, first year) [per sticky trap per day] | Mean number of D. v. virgifera per sticky trap per day (±standard deviation) ([2]; August 27, first year) [per sticky trap per day] | Mean number of WCR (±standard deviation) per sticky trap after 24 hours ([3]; August 7 (Table 11)) | Mean number of WCR (±standard deviation) per sticky trap after 24 hours ([3]; August 18 (Table 11)) | Mean number of D. u. howardi per stick trap per day (±standard deviation) in corn ([4]; August 7) | Mean number of D. u. howardi per stick trap per day (±standard deviation) in corn ([4]; August 18) | Mean number of D. v. virgifera per stick trap per day (±standard deviation) in corn ([5]; August 7) | Mean number of D. v. virgifera per stick trap per day (±standard deviation) in corn ([5]; August 18) | Mean number of NCR per sticky trap after 24 hours ([1]; August 5 (Table 10)) | Mean number of WCR per sticky trap after 24 hours ([3]; August 5 (Table 10)) |
| --- | --- | --- | --- | --- | --- | --- | --- | --- | --- | --- | --- | --- | --- | --- | --- |
| C=CCc1ccc(O)c(OC)c1 [XXIV, eugenol] | 5.7 ± 2.2^b per sticky trap | 16.5 ± 5.7^b per sticky trap | 0.3 ± 0.5^a per day | 0.0^a per day | 0.3 ± 0.5^a per sticky trap per day | 0 | 0 | 10.0 ± 2.9^a per sticky trap | 2.7 ± 2.9^a per sticky trap | 6.3 ± 1.0^a per stick trap per day | 0.0^a per stick trap per day | 10.0 ± 2.9^a per stick trap per day | 2.8 ± 2.9^a per stick trap per day |  |  |
| OCC=Cc1ccccc1 [XVIII, cinnamyl alcohol] | 8.5 ± 6.1^b per sticky trap | 23.2 ± 5.9^c per sticky trap | 0.0 per day | 0.0^a per day |  |  |  | 13.8 ± 10.2^a per sticky trap | 3.3 ± 1.7^a per sticky trap | 24.5 ± 13.6^b per stick trap per day | 1.8 ± 1.3^b per stick trap per day | 13.8 ± 10.2^a per stick trap per day | 3.3 ± 2.7^a per stick trap per day | 8.7 ± 4.6^c per sticky trap | 16.5 ± 1.9^ab per sticky trap |
